Data published in patent US20230301300A1, “HERBICIDAL COMPOSITIONS” (SYNGENTA CROP PROTECTION AG, priority 2020, published 2023).

What was measured:
Format in all cases: in vivo
[1] = tested on: Ipomoea hederacea (IPOHE); assay: B1 Post-Emergence Efficacy - Test 1; conditions: 1000 g/ha, after 13 days, five point scale
Procedure: (§1) Seeds of a variety of test species are sown in standard soil in pots:— Solanum nigrum (SOLNI), Amaranthus retoflexus (AMARE), Setaria faberi (SETFA), Alopecurus myosuroides (ALOMY), Echinochloa crus-galli (ECHCG), Ipomoea hederacea (IPOHE), Lolium perenne (LOLPE). After 8 days cultivation (post-emergence) under controlled conditions in a glasshouse (at 24/16° C., day/night; 14 hours light; 65% humidity), the plants are sprayed with an aqueous spray solution derived from the formulation of the technical active ingredient in acetone/water (50:50) solution containing 0.5% Tween 20 (polyoxyethylene sorbitan monolaurate, CAS RN 9005-64-5). Compounds are applied at 1000 g/ha. The test plants are then grown in a glasshouse under controlled conditions in a glasshouse (at 24/16° C., day/night; 14 hours light; 65% humidity) and watered twice daily. After 13 days, the test is evaluated for the percentage damage caused to the plant. The biological activities are assessed on a five point scale (5=80-100%; 4=60-79%; 3=40-59%; 2=20-39%; 1=0-19%). A blank value in the table is indicative that the compound was not tested on that species.

Solanum nigrum (SOLNI) = assay: B1 Post-Emergence Efficacy - Test 1; conditions: 1000 g/ha, after 13 days, five point scale
Procedure: as §1

Setaria faberi (SETFA) [2] = assay: B1 Post-Emergence Efficacy - Test 1; conditions: 1000 g/ha, after 13 days, five point scale
Procedure: as §1

Lolium perenne (LOLPE) [3] = assay: B1 Post-Emergence Efficacy - Test 1; conditions: 1000 g/ha, after 13 days, five point scale
Procedure: as §1

[4] = tested on: Amaranthus retoflexus (AMARE); assay: B1 Post-Emergence Efficacy - Test 1; conditions: 1000 g/ha, after 13 days, five point scale
Procedure: as §1

[5] = tested on: Echinochloa crus-galli (ECHCG); assay: B1 Post-Emergence Efficacy - Test 1; conditions: 1000 g/ha, after 13 days, five point scale
Procedure: as §1

Hordeum vulgare (HORVW) = assay: B2 Post-Emergence Efficacy - Test 2; conditions: 15 days after application, 0-100 scale
Procedure: (§2) Seeds of a variety of test species (see Table B1) were sown in standard soil in pots. After cultivation for 12 days (post-emergence) under controlled conditions in a glasshouse (at 24/18° C. or 20/16° C., at day/night; 16 hours light; 65% humidity), the plants were sprayed with an aqueous spray solution derived from the formulation of the technical active ingredient dissolved in IF50 (see Table B2 for composition) and adjuvant (Genapol X080) was added to the spray solution at a rate of 0.2% v/v.
(§3) After application, the test plants were grown in a glasshouse under controlled conditions (as above) and watered twice daily. Herbicidal activity was evaluated 15 days after application on a 0-100 scale. The results, where 0=no damage to test plant and 100=total kill of test plant are shown below in Tables 8 to 11.

[6] = tested on: Brachiaria plantaginea (BRAPL); assay: B2 Post-Emergence Efficacy - Test 2; conditions: 15 days after application, 0=no damage, 100=total kill
Procedure: as §2, §3

Setaria faberi (SETFA) [7] = assay: B2 Post-Emergence Efficacy - Test 2; conditions: 15 days after application, 0=no damage, 100=total kill
Procedure: as §2, §3

Sinapis arvensis (SINAR) = assay: B2 Post-Emergence Efficacy - Test 2; conditions: 15 days after application, 0-100 scale
Procedure: as §2, §3

[8] = tested on: Digitaria sanguinalis (DIGSA); assay: B2 Post-Emergence Efficacy - Test 2; conditions: 15 days after application, 0=no damage, 100=total kill
Procedure: as §2, §3

Lolium perenne (LOLPE) [9] = assay: B2 Post-Emergence Efficacy - Test 2; conditions: 15 days after application, 0-100 scale
Procedure: as §2, §3

Kochia scoparia (KSHSC) = assay: B2 Post-Emergence Efficacy - Test 2; conditions: 15 days after application, 0-100 scale
Procedure: as §2, §3

Zea mays (ZEAMX) = assay: B2 Post-Emergence Efficacy - Test 2; conditions: 15 days after application; for Herbicidal activity ZEAMX: 0-100 scale; for Herbicidal activity on a 0-100 scale, ZEAMX: 0=no damage, 100=total kill
Procedure: as §2, §3

Orysa sativa (ORYSA) = assay: B2 Post-Emergence Efficacy - Test 2; conditions: 15 days after application; for Herbicidal activity ORYSA: 0-100 scale; for Herbicidal activity on a 0-100 scale, ORYSA: 0=no damage, 100=total kill
Procedure: as §2, §3

Bidens pilosa (BIDPI) = assay: B2 Post-Emergence Efficacy - Test 2; conditions: 15 days after application, 0-100 scale
Procedure: as §2, §3

Galium aparine (GALAP) = assay: B2 Post-Emergence Efficacy - Test 2; conditions: 15 days after application, 0-100 scale
Procedure: as §2, §3

Cc1nn(C)c(=O)c(-c2c(F)ccc(Cl)c2CCc2ccc(C(F)(F)F)nc2)c1O [Compound 1.042, 4-[3-chloro-6-fluoro-2-[2-[6-(trifluoromethyl)-3-pyridyl]ethyl]phenyl]-5-hydroxy-2,6-dimethyl-pyridazin-3-one]
percentage damage caused to the plant, IPOHE [1]: 5 (5=80-100%)
percentage damage caused to the plant, SOLNI (Solanum nigrum (SOLNI)): 5 (5=80-100%)
percentage damage caused to the plant, SETFA (Setaria faberi (SETFA) [2]): 5 (5=80-100%)
percentage damage caused to the plant, LOLPE (Lolium perenne (LOLPE) [3]): 5 (5=80-100%)
percentage damage caused to the plant, AMARE [4]: 5 (5=80-100%)
percentage damage caused to the plant, ECHCG [5]: 5 (5=80-100%)
Herbicidal activity HORVW (Hordeum vulgare (HORVW); 15 g/Ha): 10
Herbicidal activity HORVW (Hordeum vulgare (HORVW); 30 g/Ha): 20
Herbicidal activity HORVW (Hordeum vulgare (HORVW); 60 g/Ha): 20
Herbicidal activity HORVW (Hordeum vulgare (HORVW); 125 g/Ha): 40
Herbicidal activity HORVW (Hordeum vulgare (HORVW); 250 g/Ha): 80
Herbicidal activity HORVW (Hordeum vulgare (HORVW); 500 g/Ha): 80
Herbicidal activity on a 0-100 scale, BRAPL ([6]; 15 g/Ha): 80
Herbicidal activity on a 0-100 scale, BRAPL ([6]; 30 g/Ha): 80
Herbicidal activity on a 0-100 scale, BRAPL ([6]; 60 g/Ha): 90
Herbicidal activity on a 0-100 scale, BRAPL ([6]; 125 g/Ha): 90
Herbicidal activity on a 0-100 scale, BRAPL ([6]; 250 g/Ha): 90
Herbicidal activity on a 0-100 scale, BRAPL ([6]; 500 g/Ha): 90
Herbicidal activity on a 0-100 scale, SETFA (Setaria faberi (SETFA) [7]; 15 g/Ha): 40
Herbicidal activity on a 0-100 scale, SETFA (Setaria faberi (SETFA) [7]; 30 g/Ha): 80
Herbicidal activity on a 0-100 scale, SETFA (Setaria faberi (SETFA) [7]; 60 g/Ha): 90
Herbicidal activity on a 0-100 scale, SETFA (Setaria faberi (SETFA) [7]; 125 g/Ha): 90
Herbicidal activity on a 0-100 scale, SETFA (Setaria faberi (SETFA) [7]; 250 g/Ha): 90
Herbicidal activity on a 0-100 scale, SETFA (Setaria faberi (SETFA) [7]; 500 g/Ha): 100
Herbicidal activity SINAR (Sinapis arvensis (SINAR); 15 g/Ha): 80
Herbicidal activity SINAR (Sinapis arvensis (SINAR); 30 g/Ha): 90
Herbicidal activity SINAR (Sinapis arvensis (SINAR); 60 g/Ha): 90
Herbicidal activity SINAR (Sinapis arvensis (SINAR); 125 g/Ha): 90
Herbicidal activity SINAR (Sinapis arvensis (SINAR); 250 g/Ha): 90
Herbicidal activity SINAR (Sinapis arvensis (SINAR); 500 g/Ha): 90
Herbicidal activity on a 0-100 scale, DIGSA ([8]; 15 g/Ha): 0
Herbicidal activity on a 0-100 scale, DIGSA ([8]; 30 g/Ha): 60
Herbicidal activity on a 0-100 scale, DIGSA ([8]; 60 g/Ha): 70
Herbicidal activity on a 0-100 scale, DIGSA ([8]; 125 g/Ha): 70
Herbicidal activity on a 0-100 scale, DIGSA ([8]; 250 g/Ha): 80
Herbicidal activity on a 0-100 scale, DIGSA ([8]; 500 g/Ha): 90
Herbicidal activity LOLPE (Lolium perenne (LOLPE) [9]; 15 g/Ha): 60
Herbicidal activity LOLPE (Lolium perenne (LOLPE) [9]; 30 g/Ha): 70
Herbicidal activity LOLPE (Lolium perenne (LOLPE) [9]; 60 g/Ha): 70
Herbicidal activity LOLPE (Lolium perenne (LOLPE) [9]; 125 g/Ha): 90
Herbicidal activity LOLPE (Lolium perenne (LOLPE) [9]; 250 g/Ha): 90
Herbicidal activity LOLPE (Lolium perenne (LOLPE) [9]; 500 g/Ha): 90
Herbicidal activity KCHSC (Kochia scoparia (KSHSC); 15 g/Ha): 0
Herbicidal activity KCHSC (Kochia scoparia (KSHSC); 30 g/Ha): 10
Herbicidal activity KCHSC (Kochia scoparia (KSHSC); 60 g/Ha): 10
Herbicidal activity KCHSC (Kochia scoparia (KSHSC); 125 g/Ha): 20
Herbicidal activity KCHSC (Kochia scoparia (KSHSC); 250 g/Ha): 30
Herbicidal activity KCHSC (Kochia scoparia (KSHSC); 500 g/Ha): 60
Herbicidal activity ZEAMX (Zea mays (ZEAMX); 15 g/Ha): 0
Herbicidal activity on a 0-100 scale, ZEAMX (Zea mays (ZEAMX); 15 g/Ha): 0
Herbicidal activity ZEAMX (Zea mays (ZEAMX); 30 g/Ha): 10
Herbicidal activity on a 0-100 scale, ZEAMX (Zea mays (ZEAMX); 30 g/Ha): 10
Herbicidal activity ZEAMX (Zea mays (ZEAMX); 60 g/Ha): 20
Herbicidal activity on a 0-100 scale, ZEAMX (Zea mays (ZEAMX); 60 g/Ha): 20
Herbicidal activity ZEAMX (Zea mays (ZEAMX); 125 g/Ha): 60
Herbicidal activity on a 0-100 scale, ZEAMX (Zea mays (ZEAMX); 125 g/Ha): 60
Herbicidal activity ZEAMX (Zea mays (ZEAMX); 250 g/Ha): 70
Herbicidal activity on a 0-100 scale, ZEAMX (Zea mays (ZEAMX); 250 g/Ha): 70
Herbicidal activity ZEAMX (Zea mays (ZEAMX); 500 g/Ha): 90
Herbicidal activity on a 0-100 scale, ZEAMX (Zea mays (ZEAMX); 500 g/Ha): 90
Herbicidal activity ORYSA (Orysa sativa (ORYSA); 15 g/Ha): 0
Herbicidal activity on a 0-100 scale, ORYSA (Orysa sativa (ORYSA); 15 g/Ha): 0
Herbicidal activity ORYSA (Orysa sativa (ORYSA); 30 g/Ha): 0
Herbicidal activity on a 0-100 scale, ORYSA (Orysa sativa (ORYSA); 30 g/Ha): 0
Herbicidal activity ORYSA (Orysa sativa (ORYSA); 60 g/Ha): 0
Herbicidal activity on a 0-100 scale, ORYSA (Orysa sativa (ORYSA); 60 g/Ha): 0
Herbicidal activity ORYSA (Orysa sativa (ORYSA); 125 g/Ha): 0
Herbicidal activity on a 0-100 scale, ORYSA (Orysa sativa (ORYSA); 125 g/Ha): 0
Herbicidal activity ORYSA (Orysa sativa (ORYSA); 250 g/Ha): 20
Herbicidal activity on a 0-100 scale, ORYSA (Orysa sativa (ORYSA); 250 g/Ha): 20
Herbicidal activity ORYSA (Orysa sativa (ORYSA); 500 g/Ha): 50
Herbicidal activity on a 0-100 scale, ORYSA (Orysa sativa (ORYSA); 500 g/Ha): 50
Herbicidal activity BIDPI (Bidens pilosa (BIDPI); 15 g/Ha): 70
Herbicidal activity BIDPI (Bidens pilosa (BIDPI); 30 g/Ha): 70
Herbicidal activity BIDPI (Bidens pilosa (BIDPI); 60 g/Ha): 70
Herbicidal activity BIDPI (Bidens pilosa (BIDPI); 125 g/Ha): 70
Herbicidal activity BIDPI (Bidens pilosa (BIDPI); 250 g/Ha): 80
Herbicidal activity BIDPI (Bidens pilosa (BIDPI); 500 g/Ha): 90
Herbicidal activity GALAP (Galium aparine (GALAP); 15 g/Ha): 10
Herbicidal activity GALAP (Galium aparine (GALAP); 30 g/Ha): 30
Herbicidal activity GALAP (Galium aparine (GALAP); 60 g/Ha): 60
Herbicidal activity GALAP (Galium aparine (GALAP); 125 g/Ha): 80
Herbicidal activity GALAP (Galium aparine (GALAP); 250 g/Ha): 80
Herbicidal activity GALAP (Galium aparine (GALAP); 500 g/Ha): 90
